In the NIST ThermoML archive (doi:10.1021/je400130b):
Where “and” joins values, the source holds several entries; their conditions need not be identical. Equal entries are not always repeated.

Assay: molar heat capacity at constant pressure
Settings: 101.33 kPa, Crystal, Small (less than 1 g) adiabatic calorimetry

O=S(=O)([O-])[O-].[Cu+2].[Cu+2].[Cu+2].[OH-].[OH-].[OH-].[OH-] [copper(II) tetrahydroxide sulfate]
Settings	molar heat capacity at constant pressure
4 K	4.402 J/K/mol
4.276 K	3.87 J/K/mol
4.321 K	4.927 J/K/mol
4.467 K	6.058 J/K/mol
4.5 K	6.267 J/K/mol
4.571 K	6.664 J/K/mol
4.751 K	7.35 J/K/mol
4.944 K	8.855 J/K/mol and 8.884 J/K/mol
5 K	9.138 J/K/mol
5.109 K	9.647 J/K/mol
5.218 K	10.19 J/K/mol
5.281 K	10.29 J/K/mol
5.461 K	10.03 J/K/mol
5.496 K	9.756 J/K/mol
5.659 K	8.612 J/K/mol
5.818 K	7.934 J/K/mol
5.864 K	7.741 J/K/mol
6 K	7.452 J/K/mol
6.058 K	7.363 J/K/mol
6.147 K	7.235 J/K/mol
6.298 K	7.044 J/K/mol
6.566 K	6.796 J/K/mol
6.592 K	6.689 J/K/mol
6.889 K	6.159 J/K/mol
7 K	6.491 J/K/mol
7.099 K	6.461 J/K/mol
7.18 K	6.397 J/K/mol
7.46 K	6.264 J/K/mol
7.635 K	6.223 J/K/mol
7.743 K	6.172 J/K/mol
8 K	6.095 J/K/mol
8.024 K	6.079 J/K/mol
8.159 K	6.056 J/K/mol
8.304 K	6.014 J/K/mol
8.585 K	5.956 J/K/mol
8.67 K	5.936 J/K/mol
8.866 K	5.89 J/K/mol
9 K	5.868 J/K/mol
9.144 K	5.841 J/K/mol
9.172 K	5.855 J/K/mol
9.421 K	5.784 J/K/mol
9.668 K	5.798 J/K/mol
9.696 K	5.748 J/K/mol
9.972 K	5.754 J/K/mol
10 K	5.75 J/K/mol
10.16 K	5.732 J/K/mol
10.63 K	5.745 J/K/mol
10.93 K	5.732 J/K/mol
11.68 K	5.739 J/K/mol
11.98 K	5.75 J/K/mol
12.74 K	5.81 J/K/mol
13.03 K	5.85 J/K/mol
13.78 K	5.989 J/K/mol
14.06 K	6.069 J/K/mol
14.8 K	6.285 J/K/mol
15 K	6.341 J/K/mol
15.07 K	6.393 J/K/mol
15.81 K	6.636 J/K/mol
16.07 K	6.722 J/K/mol
16.8 K	6.975 J/K/mol
17.07 K	7.117 J/K/mol
17.8 K	7.522 J/K/mol
18.06 K	7.677 J/K/mol
18.78 K	8.087 J/K/mol
19.04 K	8.238 J/K/mol
19.76 K	8.67 J/K/mol
20 K	8.85 J/K/mol
20.02 K	8.833 J/K/mol
21.22 K	9.779 J/K/mol
21.5 K	9.988 J/K/mol
23.18 K	11.26 J/K/mol
23.46 K	11.52 J/K/mol
25 K	12.91 J/K/mol
25.15 K	13.02 J/K/mol
27.12 K	14.99 J/K/mol
29.09 K	17.14 J/K/mol
30 K	18.13 J/K/mol
31.06 K	19.35 J/K/mol
33.03 K	21.62 J/K/mol
34.81 K	23.66 J/K/mol
35 K	24 J/K/mol
35.01 K	23.95 J/K/mol
36.98 K	26.35 J/K/mol
37.09 K	26.53 J/K/mol
38.96 K	28.94 J/K/mol
39.07 K	29.08 J/K/mol
40 K	30.19 J/K/mol
41.04 K	31.63 J/K/mol
43.02 K	34.11 J/K/mol
44.99 K	36.64 J/K/mol
45 K	36.59 J/K/mol
46.97 K	39.09 J/K/mol
48.95 K	41.56 J/K/mol
50 K	43.07 J/K/mol
50.93 K	44.19 J/K/mol
52.91 K	46.98 J/K/mol
54.89 K	49.62 J/K/mol
55 K	49.46 J/K/mol
56.88 K	51.68 J/K/mol
58.87 K	53.87 J/K/mol
60 K	55.63 J/K/mol
60.86 K	56.7 J/K/mol
62.84 K	59.19 J/K/mol
64.84 K	61.5 J/K/mol
65 K	61.62 J/K/mol
66.82 K	63.78 J/K/mol
68.81 K	66.04 J/K/mol
70 K	67.43 J/K/mol
70.81 K	68.24 J/K/mol
73.31 K	71.15 J/K/mol
75 K	73.06 J/K/mol
76.31 K	74.53 J/K/mol
79.15 K	77.5 J/K/mol
79.33 K	77.85 J/K/mol
80 K	78.53 J/K/mol
82.35 K	81.16 J/K/mol
82.87 K	81.56 J/K/mol
85 K	83.89 J/K/mol
85.92 K	84.81 J/K/mol
87.61 K	86.67 J/K/mol
88.97 K	88.01 J/K/mol
90 K	89.13 J/K/mol
91.38 K	90.45 J/K/mol
92.02 K	91.18 J/K/mol
94.44 K	93.68 J/K/mol
95 K	94.27 J/K/mol
95.08 K	94.4 J/K/mol
97.53 K	96.77 J/K/mol
98.16 K	97.48 J/K/mol
100 K	99.3 J/K/mol
100.62 K	99.85 J/K/mol
101.24 K	100.56 J/K/mol
103.71 K	102.89 J/K/mol
104.33 K	103.67 J/K/mol
106.81 K	105.92 J/K/mol
107.42 K	106.61 J/K/mol
109.92 K	109.04 J/K/mol
110 K	109.1 J/K/mol
110.53 K	109.61 J/K/mol
113.05 K	112.01 J/K/mol
113.64 K	112.58 J/K/mol
116.17 K	114.94 J/K/mol
116.76 K	115.5 J/K/mol
119.31 K	118.07 J/K/mol
119.89 K	118.47 J/K/mol
120 K	118.6 J/K/mol
122.46 K	120.84 J/K/mol
123.02 K	121.58 J/K/mol
125.61 K	123.78 J/K/mol
126.17 K	124.44 J/K/mol
128.76 K	126.79 J/K/mol
129.34 K	127.55 J/K/mol
130 K	128.1 J/K/mol
131.93 K	129.76 J/K/mol
132.5 K	130.3 J/K/mol
135.11 K	132.59 J/K/mol
135.67 K	133.23 J/K/mol
138.3 K	135.82 J/K/mol
138.84 K	136.39 J/K/mol
140 K	137.4 J/K/mol
141.49 K	138.48 J/K/mol
142.03 K	139.28 J/K/mol
